In brackets after ≈: the same amount, converted by molar mass.
Legend:
Peptide deformylase [1] = target: T1, Peptide deformylase (Escherichia coli, UniProt Q9JN24); experiment: Inhibitory concentration against peptide deformylase was determined
T1 sequence (Q9JN24 whole entry): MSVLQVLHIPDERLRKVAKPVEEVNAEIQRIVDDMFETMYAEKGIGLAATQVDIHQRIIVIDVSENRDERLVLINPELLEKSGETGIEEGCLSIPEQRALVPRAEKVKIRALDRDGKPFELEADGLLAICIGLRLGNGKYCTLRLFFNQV

Peptide deformylase [2] = target: T1, Peptide deformylase; experiment: Binding affinity against Co(II)-substituted Escherichia coli peptide deformylase was determined
Bacillus subtilis = experiment: In vitro minimal inhibitory concentration against Bacillus subtilis was determined; format: functional
Escherichia coli = experiment: In vitro minimal inhibitory concentration against Escherichia coli was determined; format: functional

| Structure (SMILES) | IC50 (Peptide deformylase [1]) | Ki (Peptide deformylase [2]) | MIC (Bacillus subtilis) | MIC (Escherichia coli) |
| --- | --- | --- | --- | --- |
| CCCCC(CN(O)C=O)C(=O)N[C@H](C(=O)N(C)C)C(C)(C)C (some centres undefined) | 7 nM |  |  |  |
| CC(C)(C)[C@@H]1NC(=O)C(CN(O)C=O)CCCCCCCCCNC1=O (some centres undefined) |  | 0.67 nM | 4 µM (≈ 1.48 µg/mL) | 32 µM (≈ 11.8 µg/mL) |
